# Results from patent US6683084B1, “Use of 2-amino purine derivatives for the treatment and prophylaxis of human herpes virus 6 infections” (Novartis International Pharmaceutical Ltd., priority 1993, dated 2004).
# Tested on: HHV-6 strain 7.29
# Assay: Evaluation of PCV against HHV-6 in human cord blood cells (% infected cells by immunofluorescence)
# Assay type: cell-based, human herpesvirus 6
# Description: An assay method involving the inhibition of a cytopathic effect in human cord blood cells is conducted at a dose range of 0.01 μM-100 μM. The general procedure is as described in Chapter 23 of ‘Human Herpesvirus; Epidemiology, Molecular Biology and Clinical Pathology—Conference Proceedings, Ablashi D. V. (Ed).
# ^aDilutions of the compounds were added 1 hr after viral inoculation of human cord blood. The % infected cells was measured by anti-complement immunofluorescence (ACIF). All numbers are averages of results of cord blood from 3 donors and triplicate readings were performed on each sample. Each reading represents actual counting of 3 fields.
# Human mononuclear cells were isolated from umbilical cord blood and inoculated in triplicate with the test virus. One hour later, duplicate dilutions of the compound were added, resulting in 0, 5, 10, 50, or 100 μM final concentrations. After 3-6 days, cellls were removed and tested for the presence of virus by indirect immunofluorescence (IFA) using type specific monoclonal antibodies. Three fields of 100 cells each were read from each sample.
compound,measurement,setting,value
"Nc1nc2c(ncn2CCC(CO)CO)c(=O)[nH]1 [PCV, penciclovir]",inhibition at 5 µM,"Human betaherpesvirus 6, 144 h, PCV 5 μM, Day 6, read-out: % Inhib Day 6",-5%
same,inhibition at 10 µM,"Human betaherpesvirus 6, 144 h, PCV 10 μM, Day 6, read-out: % Inhib Day 6",-7%
same,inhibition at 50 µM,"Human betaherpesvirus 6, 144 h, PCV 50 μM, Day 6, read-out: % Inhib Day 6",12%
same,inhibition at 100 µM,"Human betaherpesvirus 6, 144 h, PCV 100 μM, Day 6, read-out: % Inhib Day 6",29%
same,% Inf Day 4,"PCV 5 μM, Day 4, compound added 1 hr after viral inoculation",19%
same,% Inf Day 6,PCV 5 μM,42%
same,% Inf Day 4,"PCV 10 μM, Day 4",20%
same,% Inf Day 6,PCV 10 μM,43%
same,% Inf Day 6,PCV 50 μM,35%
same,% Inf Day 6,PCV 100 μM,38%
